Results: PubChem BioAssay (NCI)
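Five concentrations, 48 hours, 96-well plates. TGI marks complete inhibition of growth.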

What was measured:
Test in all cases: NCI tumour cell line growth inhibition, 48 h
[1] = test system: A549 NSCLC
[2] = test system: HS 578T breast
[3] = test system: MDA-N
[4] = test system: NCI-H226 lung
[5] = test system: NCI-H23 lung
[6] = test system: SF-295 CNS
[7] = test system: SF-539 CNS
[8] = test system: SK-MEL-5 melanoma
[9] = test system: SK-OV-3 ovarian
[10] = test system: SNB-75 CNS

| SMILES | TGI [1] | TGI [2] | TGI [3] | TGI [4] | TGI [5] | TGI [6] | TGI [7] | TGI [8] | TGI [9] | TGI [10] |
| --- | --- | --- | --- | --- | --- | --- | --- | --- | --- | --- |
| CC1(C)CC(C#Cc2ccccc2)CC(C)(C)N1O | 75.5 µM | 44.9 µM | 29.9 µM | 53.6 µM | 35.2 µM | 35.1 µM | 51.8 µM | 30.7 µM | > 100 µM | 54.1 µM |
| O=S1(=O)C[C@@H](NCc2ccccc2)[C@H](NCc2ccccc2)C1 | > 100 µM | > 100 µM | > 100 µM | > 100 µM | > 100 µM | > 100 µM | > 100 µM | > 100 µM | > 100 µM | > 100 µM |
| CN1N=C(c2ccncc2)OC1c1ccccc1F (configuration not stated) | > 100 µM | > 100 µM | > 100 µM | > 100 µM | > 100 µM | > 100 µM | > 100 µM | > 100 µM | > 100 µM |  |
| C[n+]1c(/C=C/c2ccc(O)c3ncccc23)[se]c2ccccc21 | 42 µM | 63.5 µM | 25.4 µM | 30.5 µM | 37.6 µM | 25.1 µM | 21.3 µM | 26.5 µM | 23.4 µM | 34.8 µM |
| O=C(O)CN(CC(=O)O)C(C(=O)O)c1ccccc1 (configuration not stated) | > 100 µM | > 100 µM | > 100 µM | > 100 µM | > 100 µM | > 100 µM | > 100 µM | > 100 µM | > 100 µM | > 100 µM |
| CCOC(=O)C1CCC(=O)N1C(=O)c1ccccc1Cl (configuration not stated) | > 100 µM | > 100 µM | > 100 µM | > 100 µM | > 100 µM | > 100 µM | > 100 µM | > 100 µM |  | > 100 µM |
| O=C1c2cccc(O)c2C(=O)c2c(OC3OC(CO)C(O)C(O)C3O)cccc21 (configuration not stated) | > 100 µM | 58.1 µM | > 100 µM | > 100 µM | 31.6 µM | > 100 µM | 58.1 µM | 36 µM | > 100 µM | 54.6 µM |
| Cc1cc(NS(=O)(=O)c2ccc(NC(NC(=O)C(C(F)(F)F)C(F)(F)F)(C(F)(F)F)C(F)(F)F)cc2)no1 | > 100 µM | > 100 µM | > 100 µM | > 100 µM | > 100 µM | > 100 µM | > 100 µM | > 100 µM | > 100 µM | > 100 µM |
| N#Cc1c(-c2ccccc2)c2c([nH]c1=O)-c1cc([N+](=O)[O-])ccc1CCC2 | > 100 µM | > 100 µM | > 100 µM | 71.6 µM | 71.1 µM | 63.1 µM | 82.5 µM | 76 µM | > 100 µM | 49.9 µM |
| O=C(OCC1OC(n2nc(Cn3nnc(-c4cccnc4)n3)n(-c3cccc4ccccc34)c2=S)C(OC(=O)c2ccccc2)C1OC(=O)c1ccccc1)c1ccccc1 (configuration not stated) | > 100 µM | > 100 µM | > 100 µM | > 100 µM | > 100 µM | > 100 µM | > 100 µM | > 100 µM | > 100 µM | > 100 µM |
| c1ccc([P+](CCCCCCCC[P+](c2ccccc2)(c2ccccc2)c2ccccc2)(c2ccccc2)c2ccccc2)cc1 | > 100 µM | > 100 µM | > 100 µM | > 100 µM | > 52.8 µM | > 72.9 µM | 19.6 µM | 40.7 µM | > 100 µM | 7.73 µM |
| CN(C)c1ccc(Cc2cc3c(O)ccc(O)c3cc(Cc3ccc(N(C)C)cc3)c2=O)cc1 | > 77.1 µM | 97.9 µM | 41 µM | 56.2 µM | 53.9 µM | > 100 µM | 60.9 µM | 39.3 µM | > 100 µM | > 92.2 µM |
| O=C(CC(=O)Nc1ccccc1)NNC(c1cc(N=Nc2ccc(Br)cc2)ccc1O)P(O)O (configuration not stated) | > 10 µM | > 10 µM | > 10 µM | 9.43 µM | > 10 µM | > 10 µM | > 10 µM | > 10 µM | > 10 µM | > 10 µM |
| CN1CCN(C2=C(Cl)C3(OCCS3)C(F)(F)C2(F)F)CC1 (configuration not stated) | > 100 µM | > 100 µM | > 100 µM | > 100 µM | > 100 µM | > 100 µM | > 100 µM | 61.7 µM | > 100 µM | > 100 µM |
| CC#CC(O)(C(=O)OC1CC(C)N(C)C(C)(C)C1)C1CCCC1 (configuration not stated) | > 100 µM |  | > 100 µM | > 100 µM | > 100 µM | > 100 µM | > 100 µM | > 100 µM | > 100 µM | > 100 µM |
| COc1ccc(OC)c2sc(N3C(=O)/C(=C/c4cccc([N+](=O)[O-])c4)N=C3c3ccccc3)nc12 | > 100 µM | > 100 µM | > 100 µM |  | > 100 µM | > 100 µM | > 100 µM | > 100 µM | > 100 µM | > 100 µM |
| c1ccc(C2CC(=NC3CCCCC3)Nc3ccccc3N2)cc1 (configuration not stated) | > 100 µM | 94.8 µM | > 100 µM | > 100 µM | > 100 µM | > 100 µM |  | 43.7 µM | > 100 µM | 78.4 µM |
| O=C1OC(c2ccccc2)N(C(=O)c2ccccc2)C1Cc1ccc(OCc2ccccc2)cc1 (configuration not stated) | > 100 µM | > 100 µM | > 100 µM | > 100 µM | > 100 µM |  | > 100 µM | > 100 µM | > 100 µM | > 100 µM |
| CC1(C)N=C2C(=O)c3c([nH]c4ccccc34)[C@]3(C)CCC1CC23 (some centres not stated) | > 6.25 µM | > 6.25 µM | > 6.25 µM | > 6.25 µM | > 6.25 µM | > 6.25 µM | > 6.25 µM | > 6.25 µM |  | > 6.25 µM |
| COc1cc2[nH]c(-c3ccccc3)cc(=O)c2c(OC)c1OC | > 100 µM | > 100 µM | > 100 µM | > 100 µM | > 100 µM | > 100 µM |  | > 100 µM | > 100 µM | > 100 µM |
| COc1cc(/C=C2\CCC(C)/C(=C\c3cc(OC)c(OC)c(OC)c3)C2=O)cc(OC)c1OC (configuration not stated) | > 100 µM | > 100 µM | 16.1 µM |  |  |  |  | 5.7 µM | 62 µM | 50.8 µM |
| CCN(CCCl)c1cc(CN(C)C)cc(NC(=O)c2ccc(C(=O)Nc3cccc(CN(C)C)c3)cc2)c1 | 14.5 µM | 0.671 µM | 0.685 µM | 17.2 µM | 11.2 µM | 13.2 µM | 2.99 µM |  | > 100 µM | 3.18 µM |
